Measurements: ChEMBL document CHEMBL1136696, “Azalide 3,6-ketals: antibacterial activity and structure-activity relationships of aryl and hetero aryl substituted analogues” (Bioorg Med Chem Lett, 2003)
Converted amounts (≈) assume the structure as drawn.

Legend:
Format in all cases: functional
Staphylococcus aureus = assay: In vitro antibacterial activity against Staphylococcus aureus 01A0758
Escherichia coli = assay: In vitro antibacterial activity against Escherichia coli 51A0150
Pasteurella multocida = assay: In vitro antibacterial activity against Pasteurella multocida 59A0067

| MIC (Staphylococcus aureus) | MIC (Escherichia coli) | MIC (Pasteurella multocida) | SMILES |
| --- | --- | --- | --- |
| 1.56 µg/mL (≈ 1.96 µM) | 3.13 µg/mL (≈ 3.94 µM) | 0.1 µg/mL (≈ 0.126 µM) | CC[C@H]1OC(=O)[C@H](C)[C@H]2OC3(CCN(c4ccc([N+](=O)[O-])c(N)n4)CC3)O[C@](C)(C[C@@H](C)CN[C@H](C)[C@@H](O)[C@]1(C)O)[C@H](O[C@@H]1O[C@H](C)CC(N(C)C)[C@H]1O)[C@H]2C (stereo partly drawn) |
| 3.13 µg/mL (≈ 3.97 µM) | 1.56 µg/mL (≈ 1.98 µM) | 0.1 µg/mL (≈ 0.127 µM) | CC[C@H]1OC(=O)[C@H](C)[C@H]2OC3(CCN(c4nc5ccccc5[nH]4)CC3)O[C@](C)(C[C@@H](C)CN(C)[C@H](C)[C@@H](O)[C@]1(C)O)[C@H](O[C@@H]1O[C@H](C)CC(N(C)C)[C@H]1O)[C@H]2C (stereo partly drawn) |
| 1.56 µg/mL (≈ 1.97 µM) | 6.25 µg/mL (≈ 7.88 µM) | 0.39 µg/mL (≈ 0.492 µM) | CC[C@H]1OC(=O)[C@H](C)[C@H]2OC3(CCN(c4ccc([N+](=O)[O-])cc4)CC3)O[C@](C)(C[C@@H](C)CN(C)[C@H](C)[C@@H](O)[C@]1(C)O)[C@H](O[C@@H]1O[C@H](C)CC(N(C)C)[C@H]1O)[C@H]2C (stereo partly drawn) |
| 1.56 µg/mL (≈ 1.96 µM) | 3.13 µg/mL (≈ 3.93 µM) | 0.2 µg/mL (≈ 0.251 µM) | CC[C@H]1OC(=O)[C@H](C)[C@H]2OC3(CCN(c4cc(OC)nc(OC)n4)CC3)O[C@](C)(C[C@@H](C)CN[C@H](C)[C@@H](O)[C@]1(C)O)[C@H](O[C@@H]1O[C@H](C)CC(N(C)C)[C@H]1O)[C@H]2C (stereo partly drawn) |
| 0.78 µg/mL (≈ 1.01 µM) | 6.25 µg/mL (≈ 8.07 µM) | 0.78 µg/mL (≈ 1.01 µM) | CC[C@H]1OC(=O)[C@H](C)[C@H]2OC3(CCN(c4nc(C)ccc4C#N)CC3)O[C@](C)(C[C@@H](C)CN[C@H](C)[C@@H](O)[C@]1(C)O)[C@H](O[C@@H]1O[C@H](C)CC(N(C)C)[C@H]1O)[C@H]2C (stereo partly drawn) |
| 0.78 µg/mL (≈ 0.833 µM) | > 50 µg/mL | 6.25 µg/mL (≈ 6.68 µM) | CC[C@H]1OC(=O)[C@H](C)[C@H]2OC3(CCN(c4ccc(C(=O)OCc5ccccc5)c(C(F)(F)F)c4)CC3)O[C@](C)(C[C@@H](C)CN[C@H](C)[C@@H](O)[C@]1(C)O)[C@H](O[C@@H]1O[C@H](C)CC(N(C)C)[C@H]1O)[C@H]2C (stereo partly drawn) |
